US20250228971A1, “DESIGN AND CONSTRUCTION OF EVOLUTIONARY-GUIDED "SELECTION GENE DRIVE" THERAPY” (THE PENN STATE RESEARCH FOUNDATION, priority 2022, published 2025)

Assays:
[1] = system: S1 vEGFRerl BaF3 cells; experiment: BaF3 dimerizer-dependence assay (growth rate); type: cell-based, murine; settings: absence of IL-3; range of dimerizer concentrations
Method: BaF3 dimerizer-dependence assays. S1 vEGFRerl BaF3s were seeded in 12-well plates at 100k/well with dimerizer (AP20187, Takara) in triplicate. Cell counts were measured on a hemocytometer every day for four days, and an exponential curve was fit to the data to estimate growth rates.

[2] = system: S1 vEGFRerl BaF3 tumors; experiment: Engineered Switch 1 BaF3 in vivo model (dimerizer-dependence); design: species or system mice; settings: once-daily dimerizer, range of doses, 12 days
Method: Engineered Switch 1 BaF3 in vivo models. All animal experiments were conducted under a protocol approved by the Institutional Animal Care and Use Committee. In the dimerizer-dependence in vivo experiment, S1 vEGFRerl BaF3 cells were subcutaneously grafted on both flanks (3.5M/flank) of NOD-SCID mice (Jackson Labs). Mice were randomized into four arms (0, 0.1, 1, and 10 mg/kg dimerizer) of 3 mice each. Mice received 100 uL dimerizer or vehicle control (2% Tween in PBS) once daily via intraperitoneal injection. Tumor volumes were measured with calipers following 12 days of treatment.

[3] = system: S1 vEGFRerl EGFR+ NSCLC PC9 cells; experiment: Erlotinib dose response in Switch 1 PC9 cells; type: cell-based, human; settings: erlotinib with or without dimerizer
Method: Drug dose response assays. In general, all 1C50 measurements were conducted similarly. Cells were seeded in 96-well plates at 3k/well triplicate. Adherent cells were given 24 hours before the addition of drug. Cell viability was measured three days after drug treatment using CellTiter-Glo 2.0 (Promega) and luminescence values were normalized to vehicle control conditions.

[4] = system: phospho-EGFR and phospho-ERK; experiment: Immunoblotting of EGFR/MAPK signaling in PC9 cells; type: cell-based, human; settings: erlotinib-treated S1 vEGFRerl PC9 cells, dimerizer added
[5] = system: mixed-population PC9 tumors; experiment: Gene drive in PC9 tumors in vivo
Method: To test this, mixtures of 50% gene drive and 50% resistant PC9 cells were generated to reflect a possible population structure at the beginning of Switch 2. These pooled populations were grafted in mice. The mice were then treated with Switch 2 drugs (osimertinib and 5-FC) with or without concurrent Switch 1 engagement (dimerizer).
Finally, these findings were performed in a full-term gene drive experiment in vivo.

[6] = system: CD19+ and CD19- PC9 cells; experiment: Immune bystander assay (vCD19); type: cell-based, human; settings: co-culture with primary T cells and blinatumomab
Method: Immune bystander assays (vCD19). PBMCs were sourced from Astarte and T cells were expanded using CD3/CD28 dynabeads (1:100 bead: cell ratio). For the immune bystander experiments, CD19+ and CD19-PC9 cells were seeded 1:1 in 24 wells plates at 60k/well. After 24 hours, 1 ng/mL blinatumomab was added to all wells. At the same time, freshly-thawed T cells were added at the appropriate concentration. Each target: effector ratio was conducted in triplicate. After 48 hours, the supernatant and resuspended adherent cells were pooled and analyzed according to the following staining protocol. Cells were spun down (750 g for 3 min) and resuspended in 50 uL Fc block buffer. After a 10 minute incubation, 100 uL antibody mixture (anti-CD3/FITC and anti-CD19/APC) was added. The cell suspension was incubated at 4C for 20 minutes. After three washes in PBS with 1% BSA, the cell suspension was analyzed by flow cytometry.

[7] = in vivo; cited from earlier work
[8] = system: EGFR L858R transformed cell population; experiment: Prototype dual-switch selection drive in vitro (FIG. 3); type: cell-based
Excerpt: The dual-switch drive engineers the evolutionary dynamics of an EGFR L858R transformed cell population in vitro. […] Rimiducid is removed to inactivate switch 1 driven drug resistance in the gene drive cell.

[9] = system: RET+ thyroid carcinoma TPC1 cells; experiment: RET gene drive growth tracking in TPC1 mixed populations; type: cell-based, human; settings: absence of gene drive cells, pralsetinib
Method: Gene drive growth tracking. Populations of sensitive, mCherry+ resistant, and GFP+ gene drive cells were mixed together. Except where otherwise noted, mixed populations consisted of 0.5% resistant cells and 5% gene drive cells. Cells were seeded in 24-well plates (1.5M/well for BaF3s and 50k/well for adherent cells) in triplicate, with the exception of the gene-drive titer experiment where 3M/well BaF3s were seeded in 6-well plates in order to maintain sufficient cell numbers for low spike-in conditions. […] For Switch 2 conditions, 500 μM 5-FC replaced dimerizer in the above formulations.
Cell counts were measured every other day. For counts of adherent cells, wells were washed with PBS, trypsinized, and then resuspended in RPMI. Cell suspensions were transferred to microcentrifuge tubes, vortexed, and a small aliquot (6%) was analyzed by flow cytometry (BD Accuri) to get subpopulation cell counts. The remaining cells were spun down (1k g for 5 min), the supernatant was aspirated, and the cell pellet was resuspended in fresh RPMI and seeded onto a new plate. Fresh drug was added immediately. In general, Switch 2 treatment began when the gene drive population exceeded 60% of the day 0 cell counts. Cells were monitored for 2-3 weeks after apparent eradication to ensure that no remaining cells grew back.

[10] = system: RET fusion driven cancer cell line; experiment: Switch 2 sensitivity of cancer cell lines (RET line); type: cell-based
Excerpt: (§1) Personalize switch 2 designs for different NSCLC tumors. Quantitative models (FIG. 5) have identified the extent of switch 2 bystander driven killing as a key factor in gene drive success. This effect is larger in from spatial systems (2D/3D) (FIG. 10). Pharmacologically, the toxin responsible for the bystander effect must be diffusible and have a half-life on the order of hours to be evolutionarily useful. Prototypes used here meet these transport constraints, but some cancer cell types display differential biological sensitivity to distinct switch 2 metabolites. […] Cell and organoid type specificity in Switch 2 designs is assessed in a larger number of genetically defined NSCLC cell line (FIGS. 8 and 10).

[11] = system: EGFR+ BaF3 tumors expressing S2 vCyD; experiment: In vivo cytosine deaminase activity; design: species or system mice; settings: daily dosing of 5-FC
Method: In vivo cytosine deaminase activity. Mice were randomized into three arms (five mice/arm).
Tumors were allowed to grow for 12 days, and then once-daily treatment was initiated. The wild-type arm and one of the S2 vCyD arms received 800 uL 500 mg/kg 5-FC via ip injection. The second S2 vCyD arm received 800 uL vehicle control (sterile PBS). Tumor volumes were measured every other day.

[12] = system: PC9 cell line; experiment: Switch 2 sensitivity of cancer cell lines (PC9); type: cell-based
Excerpt: as §1

[13] = system: mixed wild-type and S2 vCyD BaF3 cells; experiment: Enzyme-prodrug bystander assay (vCyD, BaF3); type: cell-based, murine; settings: 1 mM 5-FC
Method: Enzyme-prodrug bystander assays (vCyD and vNfsA). To evaluate the S2 vCyD system, populations of wild-type and cytosine deaminase-expressing BaF3 cells were mixed at defined ratios and seeded at 30k/well in 96-well plates in triplicate, and 1 mM 5-FC was added. Cell viability was measured after 48 hours using CellTiter-Glo and normalized to untreated controls. Similarly, wild-type and S1vEGFRosi-S2vCyD PC9 cells were mixed, seeded at 20k/well, and treated with 1 mM 5-FC.

[14] = system: PC9 cells transduced with EGFR variant library; type: cell-based, human
[15] = system: pooled sensitive, resistant and immune gene drive PC9 cells; experiment: Immune gene drive growth tracking in PC9 mixed populations; type: cell-based, human; settings: lacking gene drive cells
[16] = system: CRISPRko PC9 population; type: cell-based, human
[17] = system: Early passage wild-type PC9 cells; experiment: Early passage wild-type PC9 culture in EGFR inhibitors; type: cell-based; settings: even at high concentrations
[18] = system: mixed-population EGFR+ BaF3 tumors; experiment: Gene drive in BaF3 tumors in vivo; design: species or system mice; settings: tumors lacking gene drive cells, daily erlotinib

Compound: CC[C@H](C(=O)N1CCCC[C@H]1C(=O)O[C@H](CCc1ccc(OC)c(OC)c1)c1cccc(OCC(=O)NCC(CNC(=O)COc2cccc([C@@H](CCc3ccc(OC)c(OC)c3)OC(=O)[C@@H]3CCCCN3C(=O)[C@@H](CC)c3cc(OC)c(OC)c(OC)c3)c2)CN(C)C)c1)c1cc(OC)c(OC)c(OC)c1 [dimerizer]
- growth of S1 vEGFRerl BaF3 cells [1]: Stimulated growth
- tumor growth [2]: stimulated tumor growth
- inducible drug resistance phenotype [3]: causes inducible drug resistance
- MAPK signaling (western blot) [4]: rescues MAPK signaling
- time to progression ([5]; 50% gene drive/50% resistant, osimertinib and 5-FC with temporary dimerizer vs without): exhibited a longer time to progression

Compound: blinatumomab: bispecific CD3/CD19 T cell engager
- effect on S2 vCD19 (antigen-positive) cells [6]: targeted by the T cells
- effect on wild-type, antigen-negative cells (immune bystander activity) [6]: affected as well

Compound: CC[C@H](C(=O)N1CCCC[C@H]1C(=O)O[C@H](CCc1ccc(OC)c(OC)c1)c1cccc(OCC(=O)NCCNC(=O)COc2cccc([C@@H](CCc3ccc(OC)c(OC)c3)OC(=O)[C@@H]3CCCCN3C(=O)[C@@H](CC)c3cc(OC)c(OC)c(OC)c3)c2)c1)c1cc(OC)c(OC)c(OC)c1 [rimiducid]
- clinical exposure [7]: 0.1 to 1000 nM
- effect of rimiducid-induced gene drive population on pre-existing resistance ([8]; switch 1, erlotinib maintained): inhibits the growth of pre-existing resistance

Compound: CO[C@]1(C(=O)N[C@@H](C)c2ccc(-n3cc(F)cn3)nc2)CC[C@H](c2nc(C)cc(Nc3cc(C)[nH]n3)n2)CC1 [pralsetinib]
- outcome of mixed population [9]: selected for pre-existing G810R resistance

Compound: Nc1nc(=O)[nH]cc1F [5-FC]
- sensitivity to cytosine deaminase->5-FC pair [10]: highly sensitive
- tumor response [11]: rapid tumor regression
- sensitivity to cytosine deaminase>5-FC pair [12]: more modestly sensitive
- effect on resistant population when switch 2 is induced ([8]; 5-FC added, rimiducid removed, erlotinib maintained): kills the resistant population
- killing in mixed cultures (bystander effect) [13]: significantly higher killing than expected

Compound: C=CC(=O)Nc1cc(Nc2nccc(-c3cn(C)c4ccccc34)n2)c(OC)cc1N(C)CCN(C)C [osimertinib]
- time of treatment to osimertinib resistance [14]: 2-3 weeks
- outcome of mixed population [15]: Resistance emerged
- population dynamics [16]: initial decrease in population size, followed by the outgrowth of resistance
- population response [17]: initial regression followed by rapid outgrowth
- tumor response ([5]; mouse, in vivo): eventually became refractory to osimertinib treatment

Compound: C#Cc1cccc(Nc2ncnc3cc(OCCOC)c(OCCOC)cc23)c1 [erlotinib]
- tumor dynamics [18]: initially regressed and then relapsed
- population response [17]: initial regression followed by rapid outgrowth
- effect on sensitive EGFR-L858R+ transformed cells [8]: killed
